Source: patent publication US20200024278A1, “COMPOSITION COMPRISING ANTIBIOTIC COMPOUND AND AN HETEROCYCLIC COMPOUND AND THEIR USE IN PREVENTING OR TREATING BACTERIAL INFECTIONS” (MUTABILIS, priority 2016, published 2020)

Key:
Assay in all cases: MIC, broth microdilution (CLSI), substance alone or ATB combined with compound at 4 or 8 μg/mL
ECO UFR39 = type: cell-based, E. coli; conditions: ECO UFR39
Procedure, shortened: (§1)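 Broth microdilution; ca-MHB; 5·10^5 CFU/mL; 35° C, 16-20 h; compound alone or fixed 4/8 μg/mL with antibiotic series; endpoint = no visible growth.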

ECO 190317 = type: cell-based, E. coli; conditions: ECO 190317
Procedure, shortened: as §1

PAE UFR90 = type: cell-based, P. aeruginosa; conditions: PAE UFR90
Procedure, shortened: as §1

PAE UFR48 = type: cell-based, P. aeruginosa; conditions: PAE UFR48
Procedure, shortened: as §1

PAE 105250 = type: cell-based, P. aeruginosa; conditions: PAE 105250
Procedure, shortened: as §1

SPN 49619 = type: cell-based, S. pneumoniae; conditions: SPN 49619
Procedure, shortened: as §1

How did the “MIC ATB alone” value (ECO UFR39; antibiotic alone) turn out when `C[C@@H](O)[C@H]1C(=O)N2C(C(=O)O)=C(SCCN=CN)C[C@H]12` [IMI] was run?
The value was 16 µg/mL.

And the “MIC ATB combined with Example 1 @8 μg/ml” value (ECO UFR39; with Example 1 @8 μg/ml)?
Its value is less than 0.031 µg/mL.

And the “MIC ATB combined with Example 1 @8 μg/ml” value (ECO UFR39; with Example 1 at 8 μg/ml)?
The value was less than 0.031 µg/mL.

And the “MIC ATB combined with Example 7 @8 μgml” value (ECO UFR39; with Example 7 at 8 μg/ml)?
The value was less than 0.031 µg/mL.

And the “MIC ATB combined with Example 9 @4 μg/ml” value (ECO UFR39; with Example 9 @4 μg/ml)?
Its value is less than 0.031 µg/mL.

What about the “MIC ATB combined with Example 9 @4 μg/ml” value (ECO UFR39; with Example 9 at 4 μg/ml) of the same compound?
Its value is less than 0.031 µg/mL.

What about the “MIC ATB combined with Example 11 @8 μg/ml” value (ECO UFR39; with Example 11 at 8 μg/ml) of the same compound?
The value was less than 0.031 µg/mL.

And the “MIC ATB combined with Example 12 @8 μg/ml” value (ECO UFR39; with Example 12 at 8 μg/ml)?
Its value is less than 0.031 µg/mL.

What about the “MIC ATB combined with Example 13 @8 μg/ml” value (ECO UFR39; with Example 13 at 8 μg/ml) of the same compound?
The value was less than 0.031 µg/mL.

And the “MIC ATB combined with Example 14 @8 μg/ml” value (ECO UFR39; with Example 14 at 8 μg/ml)?
The value was less than 0.031 µg/mL.

And the “MIC ATB combined with Example 15 @4 μgml” value (ECO UFR39; with Example 15 at 4 μg/ml)?
The value was less than 0.031 µg/mL.

And the “MIC ATB combined with Example 16 @4 μg/ml” value (ECO UFR39; with Example 16 at 4 μg/ml)?
The value was less than 0.031 µg/mL.

And the “MIC ATB alone” value (ECO 190317; antibiotic alone)?
Its value is 0.125 µg/mL.

What about the “MIC ATB combined with Example 1 @8 μg/ml” value (ECO 190317; with Example 1 @8 μg/ml) of the same compound?
The value was less than 0.031 µg/mL.

And the “MIC ATB combined with Example 1 @8 μg/ml” value (ECO 190317; with Example 1 at 8 μg/ml)?
The value was less than 0.031 µg/mL.

And the “MIC ATB combined with Example 7 @8 μgml” value (ECO 190317; with Example 7 at 8 μg/ml)?
The value was less than 0.031 µg/mL.

What about the “MIC ATB combined with Example 9 @4 μg/ml” value (ECO 190317; with Example 9 @4 μg/ml) of the same compound?
The value was less than 0.031 µg/mL.

What about the “MIC ATB combined with Example 9 @4 μg/ml” value (ECO 190317; with Example 9 at 4 μg/ml) of the same compound?
The value was less than 0.031 µg/mL.

What about the “MIC ATB combined with Example 11 @8 μg/ml” value (ECO 190317; with Example 11 at 8 μg/ml) of the same compound?
The value was less than 0.031 µg/mL.

What about the “MIC ATB combined with Example 12 @8 μg/ml” value (ECO 190317; with Example 12 at 8 μg/ml) of the same compound?
Its value is less than 0.031 µg/mL.

And the “MIC ATB combined with Example 13 @8 μg/ml” value (ECO 190317; with Example 13 at 8 μg/ml)?
The value was less than 0.031 µg/mL.

And the “MIC ATB combined with Example 14 @8 μg/ml” value (ECO 190317; with Example 14 at 8 μg/ml)?
The value was less than 0.031 µg/mL.

What about the “MIC ATB combined with Example 15 @4 μgml” value (ECO 190317; with Example 15 at 4 μg/ml) of the same compound?
Its value is less than 0.031 µg/mL.

And the “MIC ATB combined with Example 16 @4 μg/ml” value (ECO 190317; with Example 16 at 4 μg/ml)?
The value was less than 0.031 µg/mL.

And the “MIC ATB alone” value (PAE UFR90; antibiotic alone)?
The value was 2 µg/mL.

What about the “MIC ATB combined with Example 1 @8 μg/ml” value (PAE UFR90; with Example 1 @8 μg/ml) of the same compound?
Its value is less than 0.031 µg/mL.

And the “MIC ATB combined with Example 1 @8 μg/ml” value (PAE UFR90; with Example 1 at 8 μg/ml)?
Its value is less than 0.031 µg/mL.

What about the “MIC ATB combined with Example 7 @8 μgml” value (PAE UFR90; with Example 7 at 8 μg/ml) of the same compound?
Its value is 32 µg/mL.

And the “MIC ATB combined with Example 9 @4 μg/ml” value (PAE UFR90; with Example 9 @4 μg/ml)?
The value was 1 µg/mL.

What about the “MIC ATB combined with Example 9 @4 μg/ml” value (PAE UFR90; with Example 9 at 4 μg/ml) of the same compound?
Its value is 1 µg/mL.

What about the “MIC ATB combined with Example 11 @8 μg/ml” value (PAE UFR90; with Example 11 at 8 μg/ml) of the same compound?
Its value is 1 µg/mL.

What about the “MIC ATB combined with Example 12 @8 μg/ml” value (PAE UFR90; with Example 12 at 8 μg/ml) of the same compound?
The value was 2 µg/mL.

What about the “MIC ATB combined with Example 13 @8 μg/ml” value (PAE UFR90; with Example 13 at 8 μg/ml) of the same compound?
The value was 16 µg/mL.

And the “MIC ATB combined with Example 14 @8 μg/ml” value (PAE UFR90; with Example 14 at 8 μg/ml)?
Its value is 2 µg/mL.

What about the “MIC ATB combined with Example 15 @4 μgml” value (PAE UFR90; with Example 15 at 4 μg/ml) of the same compound?
Its value is 2 µg/mL.

What about the “MIC ATB combined with Example 16 @4 μg/ml” value (PAE UFR90; with Example 16 at 4 μg/ml) of the same compound?
Its value is 4 µg/mL.

And the “MIC ATB alone” value (PAE UFR48; antibiotic alone)?
Its value is 8 µg/mL.

What about the “MIC ATB combined with Example 1 @8 μg/ml” value (PAE UFR48; with Example 1 @8 μg/ml) of the same compound?
Its value is less than 0.031 µg/mL.

And the “MIC ATB combined with Example 1 @8 μg/ml” value (PAE UFR48; with Example 1 at 8 μg/ml)?
The value was less than 0.031 µg/mL.

And the “MIC ATB combined with Example 7 @8 μgml” value (PAE UFR48; with Example 7 at 8 μg/ml)?
Its value is greater than 32 µg/mL.

What about the “MIC ATB combined with Example 9 @4 μg/ml” value (PAE UFR48; with Example 9 @4 μg/ml) of the same compound?
Its value is 8 µg/mL.

What about the “MIC ATB combined with Example 9 @4 μg/ml” value (PAE UFR48; with Example 9 at 4 μg/ml) of the same compound?
Its value is 16 µg/mL.

And the “MIC ATB combined with Example 11 @8 μg/ml” value (PAE UFR48; with Example 11 at 8 μg/ml)?
Its value is greater than 32 µg/mL.

What about the “MIC ATB combined with Example 12 @8 μg/ml” value (PAE UFR48; with Example 12 at 8 μg/ml) of the same compound?
Its value is greater than 32 µg/mL.

And the “MIC ATB combined with Example 13 @8 μg/ml” value (PAE UFR48; with Example 13 at 8 μg/ml)?
Its value is greater than 32 µg/mL.

And the “MIC ATB combined with Example 14 @8 μg/ml” value (PAE UFR48; with Example 14 at 8 μg/ml)?
The value was greater than 32 µg/mL.

And the “MIC ATB combined with Example 15 @4 μgml” value (PAE UFR48; with Example 15 at 4 μg/ml)?
The value was greater than 32 µg/mL.

And the “MIC ATB combined with Example 16 @4 μg/ml” value (PAE UFR48; with Example 16 at 4 μg/ml)?
The value was greater than 32 µg/mL.

And the “MIC ATB alone” value (PAE 105250; antibiotic alone)?
Its value is 1 µg/mL.

And the “MIC ATB combined with Example 1 @8 μg/ml” value (PAE 105250; with Example 1 @8 μg/ml)?
Its value is “<=0.031 μg/mL”.

What about the “MIC ATB combined with Example 1 @8 μg/ml” value (PAE 105250; with Example 1 at 8 μg/ml) of the same compound?
The value was “<=0.031 μg/mL”.

And the “MIC ATB combined with Example 7 @8 μgml” value (PAE 105250; with Example 7 at 8 μg/ml)?
Its value is 16 µg/mL.

What about the “MIC ATB combined with Example 9 @4 μg/ml” value (PAE 105250; with Example 9 @4 μg/ml) of the same compound?
The value was 1 µg/mL.

What about the “MIC ATB combined with Example 9 @4 μg/ml” value (PAE 105250; with Example 9 at 4 μg/ml) of the same compound?
Its value is 1 µg/mL.

What about the “MIC ATB combined with Example 11 @8 μg/ml” value (PAE 105250; with Example 11 at 8 μg/ml) of the same compound?
Its value is 1 µg/mL.

And the “MIC ATB combined with Example 12 @8 μg/ml” value (PAE 105250; with Example 12 at 8 μg/ml)?
Its value is 2 µg/mL.

What about the “MIC ATB combined with Example 13 @8 μg/ml” value (PAE 105250; with Example 13 at 8 μg/ml) of the same compound?
Its value is 8 µg/mL.

And the “MIC ATB combined with Example 14 @8 μg/ml” value (PAE 105250; with Example 14 at 8 μg/ml)?
The value was 2 µg/mL.

What about the “MIC ATB combined with Example 15 @4 μgml” value (PAE 105250; with Example 15 at 4 μg/ml) of the same compound?
The value was 2 µg/mL.

And the “MIC ATB combined with Example 16 @4 μg/ml” value (PAE 105250; with Example 16 at 4 μg/ml)?
The value was 2 µg/mL.

What about the “MIC ATB alone” value (SPN 49619; antibiotic alone) of the same compound?
The value was 0.063 µg/mL.

What about the “MIC ATB combined with Example 1 @8 μg/ml” value (SPN 49619; with Example 1 @8 μg/ml) of the same compound?
The value was “<=0.031 μg/mL”.

What about the “MIC ATB combined with Example 1 @8 μg/ml” value (SPN 49619; with Example 1 at 8 μg/ml) of the same compound?
Its value is “<=0.031 μg/mL”.

And the “MIC ATB combined with Example 7 @8 μgml” value (SPN 49619; with Example 7 at 8 μg/ml)?
Its value is “<=0.031 μg/mL”.

What about the “MIC ATB combined with Example 9 @4 μg/ml” value (SPN 49619; with Example 9 @4 μg/ml) of the same compound?
The value was less than 0.031 µg/mL.

And the “MIC ATB combined with Example 9 @4 μg/ml” value (SPN 49619; with Example 9 at 4 μg/ml)?
The value was less than 0.031 µg/mL.
